From DBAASP
≈ marks a conversion by molar mass, not a printed value. One block for each compound: values may come before it.

Key:
Test in all cases: ≥ marks a high value that may be exact or a test limit, other limits are often not marked, values filed in µg/mL are converted to µM
Bacillus megaterium Bm11 = tested on: Bacillus megaterium Bm11
[1] = tested on: Candida albicans ATCC 10231
[2] = tested on: Escherichia coli ATCC 25922
[3] = tested on: Staphylococcus aureus Cowan 1
Staphylococcus capitis 1 = tested on: Staphylococcus capitis 1
[4] = tested on: Yersinia pseudotuberculosis YPIII
[5] = tested on: Bacillus megaterium CIP 6620
[6] = tested on: Corynebacterium stationis CIP 101282
Escherichia coli SBS 363 = tested on: Escherichia coli SBS 363
[7] = tested on: Microbacterium maritypicum CIP 105733T
[8] = tested on: Micrococcus luteus CIP 5345
[9] = tested on: Staphylococcus aureus CIP 103428
[10] = tested on: Staphylococcus aureus SG511
[11] = tested on: Staphylococcus haemolyticus
[12] = tested on: Vibrio nigripulchritudo CIP 103195
[13] = tested on: Vibrio splendidus CIP 107715
[14] = tested on: Acinetobacter baumannii NM35
[15] = tested on: Acinetobacter baumannii NM8
[16] = tested on: Candida albicans ATCC 90028
[17] = tested on: Enterococcus faecalis ATCC 29212
[18] = tested on: Escherichia coli ATCC 25726
[19] = tested on: Klebsiella pneumoniae ATCC 700603
[20] = tested on: Pseudomonas aeruginosa ATCC 27853
[21] = tested on: Staphylococcus aureus 127/08
[22] = tested on: Staphylococcus aureus 145/08
[23] = tested on: Staphylococcus aureus ATCC 25923
[24] = tested on: Staphylococcus epidermidis RP62A/1
[25] = tested on: Staphylococcus epidermidis RP62A
[26] = tested on: Staphylococcus epidermidis T6/19
[27] = tested on: Stenotrophomonas maltophilia B32/1
[28] = tested on: Stenotrophomonas maltophilia B5/5
[29] = tested on: Acinetobacter baumannii NM124
[30] = tested on: Stenotrophomonas maltophilia B32/4
[31] = tested on: Bacillus megaterium KCTC 1096
[32] = tested on: Bacillus subtilis KCTC 1918
[33] = tested on: Escherichia coli KCTC 1682
Proteus vulgaris = tested on: Proteus vulgaris
[34] = tested on: Pseudomonas aeruginosa KCTC 1637
[35] = tested on: Staphylococcus aureus KCTC 1621
[36] = tested on: Candida albicans CCARM 14001
[37] = tested on: Candida albicans CCARM 14007
[38] = tested on: Candida albicans CCARM 14020
[39] = tested on: Candida albicans KCTC 7270
[40] = tested on: Escherichia coli CCARM 1229
[41] = tested on: Escherichia coli CCARM 1238
[42] = tested on: Listeria monocytogenes KCTC 3710
[43] = tested on: Salmonella typhimurium KCTC 1926
[44] = tested on: Trichosporon beigelii KCTC 7707

Compound: CC[C@H](C)[C@H](NC(=O)CNC(=O)[C@H](CO)NC(=O)[C@H](C)NC(=O)[C@@H](NC(=O)[C@H](CCCN=C(N)N)NC(=O)CNC(=O)[C@@H](NC(=O)[C@H](CC(C)C)NC(=O)[C@@H]1CCCN1C(=O)[C@H](CC(C)C)NC(=O)[C@@H](N)Cc1ccccc1)[C@@H](C)CC)C(C)C)C(=O)N[C@@H](CC(C)C)C(N)=O [FLPLIGRVASGIL]
MIC (Bacillus megaterium Bm11): ≥ 40 µM | MIC [1]: > 40 µM | MIC [2]: > 40 µM | MIC [3]: ≥ 40 µM | MIC (Staphylococcus capitis 1): ≥ 40 µM | MIC [4]: ≥ 40 µM

Compound: CC[C@H](C)[C@H](NC(=O)[C@@H]1CCCN1C(=O)CN)C(=O)N[C@@H](CCCN=C(N)N)C(=O)N[C@@H](CCCN=C(N)N)C(=O)N1CCC[C@H]1C(=O)N[C@@H](CCCCN)C(=O)N1CCC[C@H]1C(=O)N[C@@H](CCCN=C(N)N)C(=O)N1CCC[C@H]1C(=O)N[C@@H](CCCN=C(N)N)C(=O)N1CCC[C@H]1C(=O)N[C@@H](CCCN=C(N)N)C(=O)N1CCC[C@H]1C(=O)N[C@@H](CCC(=O)O)C(=O)O [GPIRRPKPRPRPRPE]
MIC [5]: 20 µM (≈ 36.2 µg/mL) | MIC [6]: 20 µM (≈ 36.2 µg/mL) | MIC (Escherichia coli SBS 363): ≥ 80 µM | MIC [7]: 20 µM (≈ 36.2 µg/mL) | MIC [8]: ≥ 80 µM | MIC [9]: 20 µM (≈ 36.2 µg/mL) | MIC [10]: 20 µM (≈ 36.2 µg/mL) | MIC [11]: 20 µM (≈ 36.2 µg/mL) | MIC [12]: ≥ 40 µM | MIC [13]: ≥ 40 µM

Compound: CC[C@H](C)[C@H](N)C(=O)N[C@@H](CCCCN)C(=O)N[C@H](C(=O)N1CCC[C@H]1C(=O)N[C@@H](CO)C(=O)N[C@@H](Cc1ccccc1)C(=O)N[C@@H](Cc1ccccc1)C(=O)N[C@@H](CCCN=C(N)N)C(=O)N[C@@H](CC(N)=O)C(=O)N[C@H](C(=O)N[C@@H](CC(C)C)C(=O)N[C@@H](CCCCN)C(=O)N[C@@H](CCCCN)C(=O)N[C@H](C(=O)NCC(=O)N[C@@H](CCCCN)C(=O)N[C@@H](CCC(=O)O)C(=O)N[C@@H](C)C(=O)N[C@H](C(=O)N[C@@H](CO)C(=O)N[C@@H](CC(C)C)C(=O)N[C@H](C(=O)N[C@@H](C)C(=O)NCC(=O)N[C@@H](C)C(=O)N[C@@H](CC(C)C)C(=O)N[C@@H](CCCCN)C(=O)N[C@@H](CCC(N)=O)C(=O)N[C@@H](CO)C(=O)O)[C@@H](C)CC)C(C)C)C(C)C)[C@@H](C)CC)[C@@H](C)CC [IKIPSFFRNILKKVGKEAVSLIAGALKQS]
MIC [14]: 5 µM (≈ 15.8 µg/mL) | MIC [15]: 10 µM (≈ 31.6 µg/mL) | MIC [16]: ≥ 80 µM | MIC [17]: 10 µM (≈ 31.6 µg/mL) | MIC [18]: 10 µM (≈ 31.6 µg/mL) | MIC [19]: 20 µM (≈ 63.1 µg/mL) | MIC [20]: 20 µM (≈ 63.1 µg/mL) | MIC [21]: 5 µM (≈ 15.8 µg/mL) | MIC [22]: 10 µM (≈ 31.6 µg/mL) | MIC [23]: 7.07 µM (≈ 22.3 µg/mL) | MIC [24]: 1.25 µM (≈ 3.95 µg/mL) | MIC [25]: 2.5 µM (≈ 7.89 µg/mL) | MIC [26]: 2.5 µM (≈ 7.89 µg/mL) | MIC [27]: 5 µM (≈ 15.8 µg/mL) | MIC [28]: 10 µM (≈ 31.6 µg/mL)

The remaining lines, values ahead:

MIC [29]: ≥ 100 µM | MIC [15]: ≥ 200 µM | MIC [18]: ≥ 200 µM | MIC [21]: ≥ 200 µM | MIC [23]: > 200 µM | MIC [27]: ≥ 100 µM | MIC [30]: ≥ 50 µM
Compound: CC[C@H](C)[C@@H]1NC(=O)[C@H](CCCCN)NC(=O)[C@@H](NC(=O)[C@H](C)NC(=O)[C@@H](NC(=O)[C@H](CC(C)C)NC(=O)[C@H](CC(=O)O)NC(=O)[C@@H](NC(=O)CNC(=O)[C@H](CC(C)C)NC(=O)[C@H](CCCCN)NC(=O)[C@H](C)NC(=O)[C@H](CC(C)C)NC(=O)[C@H](CC(=O)O)NC(=O)[C@H](CCCCN)NC(=O)CNC(=O)[C@H](CC(C)C)NC(=O)CNC(=O)[C@H](CCCCN)NC(=O)[C@H](CO)NC(=O)[C@H](C)NC(=O)[C@H](Cc2ccccc2)NC(=O)[C@@H](N)CCCCN)C(C)C)C(C)C)CSSC[C@@H](C(=O)O)NC(=O)[C@H](CCC(N)=O)NC(=O)[C@H](CCCCN)NC(=O)[C@H](CO)NC1=O [KFASKGLGKDLAKLGVDLVACKISKQC]

MIC [31]: 3.12 µM (≈ 5.54 µg/mL) | MIC [32]: 1.56 µM (≈ 2.77 µg/mL) | MIC [33]: 8.84 µM (≈ 15.7 µg/mL) | MIC (Proteus vulgaris): 3.12 µM (≈ 5.54 µg/mL) | MIC [34]: 12.5 µM (≈ 22.2 µg/mL) | MIC [35]: 6.25 µM (≈ 11.1 µg/mL)
Compound: CC[C@H](C)[C@H](NC(=O)[C@H](CCCCN)NC(=O)[C@H](CCCCN)NC(=O)[C@H](Cc1ccccc1)NC(=O)[C@H](CC(C)C)NC(=O)[C@H](CCCCN)NC(=O)[C@H](Cc1c[nH]c2ccccc12)NC(=O)[C@@H](N)CCCCN)C(=O)N1CCC[C@H]1C(=O)N[C@@H](CC(C)C)C(=O)N[C@@H](C)C(=O)N[C@@H](CCCCN)C(=O)N[C@@H](CCCCN)C(=O)N[C@@H](Cc1ccccc1)C(N)=O [KWKLFKKIPLAKKF]

MIC [32]: ≥ 256 µM | MIC [36]: ≥ 32 µM | MIC [37]: ≥ 32 µM | MIC [38]: ≥ 32 µM | MIC [39]: ≥ 32 µM | MIC [40]: ≥ 256 µM | MIC [41]: ≥ 256 µM | MIC [33]: ≥ 256 µM | MIC [42]: ≥ 128 µM | MIC [34]: ≥ 64 µM | MIC [43]: 16 µM (≈ 15.4 µg/mL) | MIC [35]: ≥ 256 µM | MIC [44]: 16 µM (≈ 15.4 µg/mL)
Compound: NCCCC[C@H](NC(=O)[C@H](Cc1c[nH]c2ccccc12)NC(=O)[C@H](CCCCN)NC(=O)[C@H](Cc1c[nH]c2ccccc12)NC(=O)[C@H](CCCCN)NC(=O)[C@@H](N)Cc1c[nH]c2ccccc12)C(=O)O [WKWKWK]
